Key:
Format in all cases: functional
Chilo suppressalis [1] = test: Insecticidal activity against Chilo suppressalis (rice stem borer) assessed as mortality at 50 ug/g administered as topical application
Spodoptera litura = test: Insecticidal activity against Spodoptera litura assessed as mortality at 500 ppm; settings: for mortality at 500 ppm: Spodoptera litura
Nilaparvata lugens = test: Insecticidal activity against Nilaparvata lugens (brown planthopper) assessed as mortality at 50 ppm; settings: for mortality at 50 ppm: Nilaparvata lugens
Tetranychus urticae = test: Acaricidal activity against Tetranychus urticae (two-spotted spider mite) assessed as mortality at 500 ppm; settings: for mortality at 500 ppm: Tetranychus urticae
Culex pipiens molestus = test: Insecticidal activity against Culex pipiens molestus assessed as mortality at 5 ppm; settings: for mortality at 5 ppm: Culex pipiens
Chilo suppressalis [2] = test: Insecticidal activity against Chilo suppressalis (rice stem borer) assessed as mortality compound administered as topical application

Structure (SMILES) | mortality (Chilo suppressalis [1]) [%] | mortality at 500 ppm (Spodoptera litura) [%] | mortality at 50 ppm (Nilaparvata lugens) [%] | mortality at 500 ppm (Tetranychus urticae) [%] | mortality at 5 ppm (Culex pipiens molestus) [%] | mortality (Spodoptera litura) [%] | LD50 (Chilo suppressalis [2]) [mg/kg] | mortality (Nilaparvata lugens) [%] | mortality (Tetranychus urticae) [%] | mortality (Culex pipiens molestus) [%]
CCOP(=O)(OCC)[C@]1(C#N)SC[C@H](CN(C)C)CS1.O=C(O)C(=O)O | 60 | 10 | 80 | 100 | 100 | – | – | – | – | –
CN(C)CC1CSC(C(=O)c2ccccc2)(C(=O)c2ccccc2)SC1 | 100 | – | – | – | – | 0 | 13.5 | 100 | 80 | 100
CN(C)CC1CSC(C(=O)c2ccccc2)(C(=O)c2ccccc2)SC1.O=C(O)C(=O)O | 100 | 0 | 100 | 100 | 100 | – | – | – | – | –
CN(C)C[C@H]1CS[C@](C#N)(c2ccc(Cl)cc2)SC1 | 100 | 0 | 100 | 70 | 100 | – | – | – | – | –
CN(C)C[C@H]1CS[C@@](C#N)(c2ccc(Cl)cc2)SC1 | 100 | 0 | 100 | 90 | 100 | – | – | – | – | –
CCN(CC)C(=O)[C@]1(C#N)SC[C@@H](CN(C)C)CS1.O=C(O)C(=O)O | 100 | 100 | 100 | 100 | 95 | – | 5.8 | – | – | –
CCN(CC)C(=O)[C@]1(C#N)SC[C@H](CN(C)C)CS1 | 100 | – | – | – | – | 100 | 5.6 | 100 | 90 | 100
CCN(CC)C(=O)[C@]1(C#N)SC[C@H](CN(C)C)CS1.O=C(O)C(=O)O | 100 | 100 | 80 | 100 | 100 | – | 7.2 | – | – | –
CCOP(=O)(OCC)[C@]1(C#N)SC[C@@H](CN(C)C)CS1.O=C(O)C(=O)O | 100 | 70 | 100 | 100 | 100 | – | – | – | – | –
CCOC(=O)[C@H]1SC[C@H](CN(C)C)CS1.O=C(O)C(=O)O | 0 | 0 | 30 | 100 | 5 | – | – | – | – | –
CN(C)CC1CSSSC1.O=C(O)C(=O)O | 100 | 100 | 100 | 100 | 100 | – | 7.5 | – | – | –
CN(C)CC1CCSS1.O=C(O)C(=O)O (configuration not stated) | 100 | 30 | 80 | 100 | 100 | – | 4.3 | – | – | –
CN(C)CC1CSSC1.O=C(O)C(=O)O | 100 | 90 | 100 | 100 | 100 | – | 11.4 | – | – | –
CN(C)CC(S)CCS.O=C(O)C(=O)O (configuration not stated) | 100 | 60 | 100 | 100 | 45 | – | – | – | – | –
CN(C)CC(CS)CS.O=C(O)C(=O)O | 100 | 30 | 100 | 100 | 100 | – | – | – | – | –
CNC(=O)SCCC(CN(C)C)SC(=O)NC (configuration not stated) | 100 | 0 | 100 | 30 | 5 | – | – | – | – | –
CC(C)NC(=O)SCCC(CN(C)C)SC(=O)NC(C)C (configuration not stated) | 100 | 0 | 45 | 50 | 65 | – | 24.5 | – | – | –
CNC(=S)SCCC(CN(C)C)SC(=S)NC (configuration not stated) | 100 | 10 | 70 | 80 | 70 | – | 15.8 | – | – | –
CC(=O)SCC(CSC(C)=O)CN(C)C.O=C(O)C(=O)O | 100 | 70 | 100 | 100 | 100 | – | 32.5 | – | – | –
CN(C)CC(CSC(=O)c1ccccc1)CSC(=O)c1ccccc1 | 100 | 10 | 100 | 100 | 100 | – | 4 | – | – | –
CCC(=O)SCC(CSC(=O)CC)CN(C)C | 100 | – | – | – | – | 40 | 7.6 | 70 | 100 | 100
CCC(=O)SCC(CSC(=O)CC)CN(C)C.O=C(O)C(=O)O | 100 | – | 70 | 100 | – | 0 | 6.6 | – | – | 75

Structure (SMILES) | mortality (Chilo suppressalis [1]) [%] | mortality at 500 ppm (Spodoptera litura) [%] | mortality at 50 ppm (Nilaparvata lugens) [%] | mortality at 500 ppm (Tetranychus urticae) [%] | mortality at 5 ppm (Culex pipiens molestus) [%] | mortality (Spodoptera litura) [%] | LD50 (Chilo suppressalis [2]) [mg/kg] | mortality (Nilaparvata lugens) [%] | mortality (Tetranychus urticae) [%] | mortality (Culex pipiens molestus) [%]
CN(C)CC(CSC(=O)N(C)C)CSC(=O)N(C)C.O=C(O)C(=O)O | 20 | 0 | 30 | 100 | 0 | – | – | – | – | –
CN(C)CC(CSC(N)=O)CSC(N)=O.Cl.O | 100 | 100 | 100 | 80 | 100 | – | 12.6 | – | – | –
CNC(=O)SCC(CSC(=O)NC)CN(C)C | 100 | 20 | 30 | 90 | 100 | – | 27.1 | – | – | –
CC(C)NC(=O)SCC(CSC(=O)NC(C)C)CN(C)C | 100 | – | – | – | – | 0 | – | 20 | 60 | 100
CC(C)NC(=O)SCC(CSC(=O)NC(C)C)CN(C)C.O=C(O)C(=O)O | 100 | 0 | – | – | 100 | – | 30.5 | 0 | 90 | –
CC(C)NC(=S)SCC(CSC(=S)NC(C)C)CN(C)C | 100 | 50 | 100 | 80 | 100 | – | 12.7 | – | – | –
CSCCC(CN(C)C)SC (configuration not stated) | 0 | – | – | – | – | 0 | – | 10 | 20 | 0
CSCCC(CN(C)C)SC.O=C(O)C(=O)O (configuration not stated) | 0 | 0 | – | – | 0 | – | – | 30 | 100 | –
CCOC(=O)CSCC(CSCC(=O)OCC)CN(C)C.O=C(O)C(=O)O | 0 | 0 | 40 | 80 | 0 | – | – | – | – | –
CN(C)CC1CCS[S+]1[O-].O=C(O)C(=O)O (configuration not stated) | 100 | 0 | 100 | 100 | 100 | – | 7.5 | – | – | –
CN(C)CC1CS[S+]([O-])C1.O=C(O)C(=O)O (configuration not stated) | 100 | 70 | 100 | 100 | 0 | – | – | – | – | –
CN(C)CC(CCSS(=O)(=O)c1ccccc1)SS(=O)(=O)c1ccccc1 (configuration not stated) | 100 | 0 | 30 | 100 | 100 | – | 11.6 | – | – | –
CN(C)CC(CSS(=O)(=O)c1ccccc1)CSS(=O)(=O)c1ccccc1.O=C(O)C(=O)O | 100 | 80 | 100 | 100 | 0 | – | – | – | – | –
CN(C)C[C@@H]1CCSC(C(=O)c2ccccc2)(C(=O)c2ccccc2)S1 | 100 | – | – | – | – | 10 | 7.1 | 90 | 100 | 40
CN(C)C[C@@H]1CCSC(C(=O)c2ccccc2)(C(=O)c2ccccc2)S1.O.O=C(O)C(=O)O | 100 | – | 100 | 100 | – | 0 | 7.5 | – | – | 65
CC(=O)SCCC(CN(C)C)SC(C)=O (configuration not stated) | 100 | 10 | 80 | 100 | 80 | – | – | – | – | –
CN(C)CC(CCSC(=O)c1ccccc1)SC(=O)c1ccccc1.O.O=C(O)C(=O)O (configuration not stated) | 100 | – | – | – | – | 0 | – | 100 | 100 | 100
CN(C)CC(CCSC(=O)c1ccccc1)SC(=O)c1ccccc1.Cl (configuration not stated) | 100 | – | 100 | 100 | 95 | 50 | – | – | – | –
CCC(=O)SCCC(CN(C)C)SC(=O)CC.O=C(O)C(=O)O (configuration not stated) | 100 | 40 | 70 | 80 | 20 | – | – | – | – | –
CCOC(=O)C1SCC(CN(C)C)CS1 (mixture of isomers) | 0 | 0 | 90 | 20 | 0 | – | – | – | – | –
CN(C)C(CSS(=O)(=O)c1ccccc1)CSS(=O)(=O)c1ccccc1 [BENSULTAP] | – | – | – | – | – | – | 3.7 | – | – | –
CN(C)C1CSSSC1.O=C(O)C(=O)O [THIOCYCLAM HYDROGEN OXALATE] | 100 | 20 | 100 | 80 | 100 | – | – | – | – | –
